Reference: ChEMBL document CHEMBL6153174, “Design and Synthesis of Novel Deazapurine DNMT 1 Inhibitors with In Vivo Efficacy in DLBCL” (J Med Chem, 2025)
Active and inactive are the calls of the source. The rule behind the calls is not given here.

Columns and labels:
MV4-11 = test: Antiproliferative activity against human MV4-11 cells assessed as inhibition of cell viability measured after 72 hrs by MTT assay; format: functional, cell-based; settings: MV4-11, 72 h
[1] = molecular target: DNA (cytosine-5)-methyltransferase 3B (Homo sapiens, UniProt Q9UBC3); test: Inhibition of DNMT3B (unknown origin) preincubated for 15 mins followed by substrate and [3H-SAM] addition and measured after 60 mins by microbeta analysis
[2] = Cmax in Sprague-Dawley rat at 10 mg/kg, po measured upto 24 hrs by LC/MS/MS analysis; format: ADME, organism-based; settings: in vivo
[3] = AUC (0 to t) in Sprague-Dawley rat at 10 mg/kg, po measured upto 24 hrs by LC/MS/MS analysis; format: ADME, organism-based; settings: Sprague-Dawley, in vivo
[4] = Cmax in Sprague-Dawley rat at 10 mg/kg, iv measured upto 24 hrs by LC/MS/MS analysis; format: ADME, organism-based; settings: in vivo
[5] = Clearance in Sprague-Dawley rat at 10 mg/kg, iv measured upto 24 hrs by LC/MS/MS analysis; format: ADME, organism-based; settings: in vivo
[6] = AUC (0 to t) in Sprague-Dawley rat at 10 mg/kg, iv measured upto 24 hrs by LC/MS/MS analysis; format: ADME, organism-based; settings: Sprague-Dawley, in vivo
RPMI-8226 = test: Antiproliferative activity against human RPMI-8226 cells assessed as inhibition of cell viability measured after 72 hrs by MTT assay; format: functional, cell-based; settings: RPMI-8226, 72 h
NCI-H1299 = test: Antiproliferative activity against human NCI-H1299 cells assessed as inhibition of cell viability measured after 72 hrs by MTT assay; format: functional, cell-based; settings: NCI-H1299, 72 h
TMD8 [7] = test: Antiproliferative activity against human TMD8 cells assessed as inhibition of cell viability measured after 72 hrs by MTT assay; format: functional, cell-based; settings: TMD8, 72 h
TMD8 [8] = test: Induction of cell cycle arrest in human TMD8 cells assessed as accumulation of cells at G0-G1 phase at 1.0 uM incubated for 24 hrs by PI staining based flow cytometry analysis (reference value: 40.7%); format: functional
TMD8 [9] = test: Induction of cell cycle arrest in human TMD8 cells assessed as accumulation of cells at G2/M phase at 0.5 uM incubated for 24 hrs by PI staining based flow cytometry analysis (reference value: 20.4%); format: functional
DOHH-2 [10] = test: Induction of cell cycle arrest in human DOHH-2 cells assessed as accumulation of cells at G0-G1 phase at 0.25 uM incubated for 24 hrs by PI staining based flow cytometry analysis (reference value: 27.1%); format: functional
DOHH-2 [11] = test: Induction of cell cycle arrest in human DOHH-2 cells assessed as accumulation of cells at G2-M phase at 0.5 uM incubated for 24 hrs by PI staining based flow cytometry analysis (reference value: 27.8%); format: functional
DOHH-2 [12] = test: Induction of cell cycle arrest in human DOHH-2 cells assessed as accumulation of cells at G2-M phase at 1.0 uM incubated for 24 hrs by PI staining based flow cytometry analysis (reference value: 27.8%); format: functional
DOHH-2 [13] = test: Induction of cell cycle arrest in human DOHH-2 cells assessed as accumulation of cells at G2/M phase incubated for 24 hrs by PI staining based flow cytometry analysis; format: functional; settings: dose 0.25-1 µM
DOHH-2 [14] = test: Induction of cell cycle arrest in human DOHH-2 cells assessed as accumulation of cells at G0-G1 phase incubated for 24 hrs by PI staining based flow cytometry analysis; format: functional; settings: dose 0.25-1 µM
TMD8 [15] = test: Induction of apoptosis in human TMD8 cells assessed as late apoptotic cells measured after 48 hrs by annexin-V/FITC and PI staining based flow cytometry analysis; format: functional, cell-based; settings: dose 1-10 µM
DOHH-2 [16] = test: Induction of apoptosis in human DOHH-2 cells assessed as late apoptotic cells measured after 48 hrs by annexin-V/FITC and PI staining based flow cytometry analysis; format: functional, cell-based; settings: dose 0.25-5 µM
TMD8 [17] = test: Induction of apoptosis in human TMD8 cells assessed as early apoptotic cells at 5 uM measured after 48 hrs by annexin-V/FITC and PI staining based flow cytometry analysis (reference value: 9.15%); format: functional
TMD8 [18] = test: Induction of apoptosis in human TMD8 cells assessed as late apoptotic cells at 2.51 uM measured after 48 hrs by annexin-V/FITC and PI staining based flow cytometry analysis (reference value: 5.13%); format: functional
TMD8 [19] = test: Induction of apoptosis in human TMD8 cells assessed as late apoptotic cells at 10 uM measured after 48 hrs by annexin-V/FITC and PI staining based flow cytometry analysis (reference value: 5.13%); format: functional
DOHH-2 [20] = test: Induction of apoptosis in human DOHH-2 cells assessed as early apoptotic cells at 1 uM measured after 48 hrs by annexin-V/FITC and PI staining based flow cytometry analysis (reference value: 5.69%); format: functional
DOHH-2 [21] = test: Induction of apoptosis in human DOHH-2 cells assessed as late apoptotic cells at 2.5 uM measured after 48 hrs by annexin-V/FITC and PI staining based flow cytometry analysis (reference value: 3.66%); format: functional
[22] = molecular target: T1, DNA (cytosine-5)-methyltransferase 1 (Homo sapiens, UniProt P26358); test: Inhibition of DNMT1 in human DOHH-2 cells assessed as inhibition of DNA methylation incubated for 48 hrs by Western blot analysis; format: cell-based; settings: dose 10-1000 nM
[23] = molecular target: T1, DNA (cytosine-5)-methyltransferase 1; test: Inhibition of DNMT1 in human DOHH-2 cells assessed as inhibition of 5-methylcytosine level at 10 to 1000 nM incubated for 48 hrs by Western blot analysis; format: cell-based; settings: dose 10-1000 nM
[24] = Upregulation of FAS mRNA level in human DOHH-2 cells assessed as fold change at 300 nM measured after 6 days by PCR analysis; format: functional; settings: time 6 day
TMD8 [25] = test: Antitumor activity against human TMD8 cells xenografted in mouse model assessed as tumor inhibition rate at 10 mg/kg, iv administered three times a week relative to control; format: functional; design: scale not given: the % may be the effect or the level left
[26] = Subacute toxicity in Balb/C mouse assessed as change in body weight at 10 to 30 mg/kg, iv administered three times in a week for 2 weeks; format: organism-based; settings: in vivo, 336 h, dose 10-30 mg/kg
[27] = Subacute toxicity in Balb/C mouse assessed as effect on peripheral blood at 10 mg/kg, iv administered three times in a week for 2 weeks; format: organism-based; settings: in vivo, 336 h
[28] = Subacute toxicity in Balb/C mouse assessed as effect on red blood cells at 30 mg/kg, iv administered three times in a week for 2 weeks; format: organism-based; settings: in vivo, 336 h
[29] = Subacute toxicity in Balb/C mouse assessed as effect on hematocrit at 30 mg/kg, iv administered three times in a week for 2 weeks; format: organism-based; settings: in vivo, 336 h
[30] = Subacute toxicity in Balb/C mouse assessed as effect on liver at 30 mg/kg, iv administered three times in a week for 2 weeks; format: organism-based; settings: in vivo, 336 h
[31] = Antitumor activity against human TMD8 cells harbouring TP53 mutant xenografted in mouse model assessed as tumor inhibition rate at 10 mg/kg, iv administered three times a week relative to control; format: functional; design: scale not given: the % may be the effect or the level left
[32] = Antitumor activity against human TMD8 cells harbouring TP53 mutant xenografted in mouse model assessed as tumor inhibition rate at 10 mg/kg, iv administered three times a week in presence of chidamide relative to control; format: functional; design: scale not given: the % may be the effect or the level left
[33] = Antitumor activity against human TMD8 cells harbouring TP53 mutant xenografted in mouse model assessed as body weight change at 10 mg/kg, iv administered three times a week in presence of chidamide relative to control; format: functional

T1 sequence (P26358 whole entry): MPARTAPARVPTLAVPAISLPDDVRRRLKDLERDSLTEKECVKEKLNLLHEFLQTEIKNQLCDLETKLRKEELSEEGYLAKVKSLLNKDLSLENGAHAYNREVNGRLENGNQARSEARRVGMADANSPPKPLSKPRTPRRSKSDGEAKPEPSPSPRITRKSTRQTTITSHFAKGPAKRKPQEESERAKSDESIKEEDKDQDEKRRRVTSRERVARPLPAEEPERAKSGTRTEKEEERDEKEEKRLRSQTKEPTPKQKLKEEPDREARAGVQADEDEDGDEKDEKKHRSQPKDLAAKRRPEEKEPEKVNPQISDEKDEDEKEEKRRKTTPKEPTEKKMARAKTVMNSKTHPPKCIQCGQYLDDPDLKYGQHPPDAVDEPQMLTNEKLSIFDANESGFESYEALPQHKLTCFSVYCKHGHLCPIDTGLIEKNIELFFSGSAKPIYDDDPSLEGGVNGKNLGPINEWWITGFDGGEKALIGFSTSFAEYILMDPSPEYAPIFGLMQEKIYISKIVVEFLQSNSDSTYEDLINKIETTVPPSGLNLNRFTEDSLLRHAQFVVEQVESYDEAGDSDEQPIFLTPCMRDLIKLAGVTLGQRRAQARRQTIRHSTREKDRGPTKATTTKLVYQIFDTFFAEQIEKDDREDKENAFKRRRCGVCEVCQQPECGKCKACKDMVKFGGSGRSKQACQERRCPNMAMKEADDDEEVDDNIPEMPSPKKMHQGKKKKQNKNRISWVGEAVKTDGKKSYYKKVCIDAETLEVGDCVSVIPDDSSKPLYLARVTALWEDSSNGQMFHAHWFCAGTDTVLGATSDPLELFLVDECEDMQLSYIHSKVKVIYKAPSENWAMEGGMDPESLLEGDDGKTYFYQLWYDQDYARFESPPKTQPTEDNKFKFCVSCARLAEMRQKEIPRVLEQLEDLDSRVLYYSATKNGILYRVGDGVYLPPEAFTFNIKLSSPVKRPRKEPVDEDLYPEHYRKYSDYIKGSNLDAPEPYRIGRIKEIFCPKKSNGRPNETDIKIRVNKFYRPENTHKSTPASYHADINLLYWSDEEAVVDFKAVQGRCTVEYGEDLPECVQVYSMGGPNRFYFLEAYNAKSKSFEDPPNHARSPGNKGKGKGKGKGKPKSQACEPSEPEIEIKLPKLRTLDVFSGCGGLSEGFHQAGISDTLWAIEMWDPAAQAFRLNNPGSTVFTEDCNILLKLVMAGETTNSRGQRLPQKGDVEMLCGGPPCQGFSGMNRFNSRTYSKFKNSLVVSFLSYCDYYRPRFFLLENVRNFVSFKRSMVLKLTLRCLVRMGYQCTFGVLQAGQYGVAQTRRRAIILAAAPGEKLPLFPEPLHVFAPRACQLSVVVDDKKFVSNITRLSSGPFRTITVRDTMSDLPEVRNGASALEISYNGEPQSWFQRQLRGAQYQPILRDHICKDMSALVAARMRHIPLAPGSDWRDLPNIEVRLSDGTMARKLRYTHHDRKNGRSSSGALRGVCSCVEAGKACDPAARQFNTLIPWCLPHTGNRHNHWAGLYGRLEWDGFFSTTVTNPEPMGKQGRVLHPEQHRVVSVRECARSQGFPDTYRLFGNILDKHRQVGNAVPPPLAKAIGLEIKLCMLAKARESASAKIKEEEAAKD

SMILES: CN1CCC(Nc2nc(-c3ccnc(F)c3)nc3c2ccn3CCCN2CCCC2)CC1
- IC50 (MV4-11): 950 nM
- IC50 [1]: > 20000 nM
- Cmax [2]: 16.7 ng/mL
- AUC(0-t) at 24 h [3]: 236 ng·h/mL
- Cmax [4]: 419 ng/mL
- clearance [5]: 123 mL/min/kg
- AUC(0-t) at 24 h [6]: 1010 ng·h/mL
- IC50 (RPMI-8226): 780 nM
- IC50 (NCI-H1299): 2380 nM
- IC50 (TMD8 [7]): 500 nM
- Activity (TMD8 [8]): 32.5%
- Activity (TMD8 [9]): 28.8%
- Activity (DOHH-2 [10]): 28.6%
- Activity (DOHH-2 [11]): 29.1%
- Activity (DOHH-2 [12]): 32%
- Activity (DOHH-2 [13]): Dose-dependent-effect
- Activity (DOHH-2 [14]): Dose-dependent-effect
- Activity (TMD8 [15]): Dose-dependent-effect
- Activity (DOHH-2 [16]): Dose-dependent-effect
- Activity (TMD8 [17]): 41.3%
- Activity (TMD8 [18]): 10.5%
- Activity (TMD8 [19]): 12.9%
- Activity (DOHH-2 [20]): 24%
- Activity (DOHH-2 [21]): 23.5%
- inhibition [22]: Active
- inhibition [23]: Active
- fold change (FC) [24]: 3.05
- Activity (TMD8 [25]): 54.61%
- Activity [26]: Non-toxic
- Activity [27]: Non-toxic
- Activity [28]: Non-toxic
- Activity [29]: Non-toxic
- Activity [30]: Non-toxic
- Activity [31]: 58%
- Activity [32]: 83.2%
- Activity [33]: -1.5%
